According to ChEMBL document CHEMBL5463727, “Data for DCP probe SGK3-PROTAC1” (2023):

Assays:
[1] = target: Platelet-derived growth factor receptor alpha (Homo sapiens) (UniProt P16234); experiment: % Activity remaining of PDGFRA in the Dundee kinase panel at 1.0 µM; conditions: Compound concentration 1.0 uM
[2] = target: High affinity nerve growth factor receptor (Homo sapiens) (UniProt P04629); experiment: % Activity remaining of TrkA in the Dundee kinase panel at 1.0 µM; conditions: Compound concentration 1.0 uM
High affinity nerve growth factor receptor (Homo sapiens), sequence (P04629 33-796 limits assumed): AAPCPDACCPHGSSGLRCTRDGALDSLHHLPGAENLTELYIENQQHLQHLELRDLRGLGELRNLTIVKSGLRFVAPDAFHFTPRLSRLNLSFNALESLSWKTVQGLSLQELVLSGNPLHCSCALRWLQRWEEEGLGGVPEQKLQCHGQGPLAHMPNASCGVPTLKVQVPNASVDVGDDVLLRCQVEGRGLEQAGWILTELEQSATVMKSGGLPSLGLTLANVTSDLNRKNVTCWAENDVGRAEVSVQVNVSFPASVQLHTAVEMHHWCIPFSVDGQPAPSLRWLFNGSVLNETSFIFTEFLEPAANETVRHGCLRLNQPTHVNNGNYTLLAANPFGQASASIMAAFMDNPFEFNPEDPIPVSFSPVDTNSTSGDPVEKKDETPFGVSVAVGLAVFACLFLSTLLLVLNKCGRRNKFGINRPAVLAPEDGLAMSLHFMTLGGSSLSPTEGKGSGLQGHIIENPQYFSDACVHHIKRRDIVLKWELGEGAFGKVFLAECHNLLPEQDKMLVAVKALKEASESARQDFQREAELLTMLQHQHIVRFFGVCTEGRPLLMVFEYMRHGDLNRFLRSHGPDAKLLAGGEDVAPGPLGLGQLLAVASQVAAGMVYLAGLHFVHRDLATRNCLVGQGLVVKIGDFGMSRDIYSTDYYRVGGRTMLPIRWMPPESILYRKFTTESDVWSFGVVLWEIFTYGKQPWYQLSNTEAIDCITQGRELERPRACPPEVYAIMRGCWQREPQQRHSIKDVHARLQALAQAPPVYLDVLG

[3] = target: Mitogen-activated protein kinase kinase kinase kinase 5 (Homo sapiens) (UniProt Q9Y4K4); experiment: % Activity remaining of MAP4K5 in the Dundee kinase panel at 1.0 µM; conditions: Compound concentration 1.0 uM
Mitogen-activated protein kinase kinase kinase kinase 5 (Homo sapiens), sequence (Q9Y4K4 whole entry, looked up): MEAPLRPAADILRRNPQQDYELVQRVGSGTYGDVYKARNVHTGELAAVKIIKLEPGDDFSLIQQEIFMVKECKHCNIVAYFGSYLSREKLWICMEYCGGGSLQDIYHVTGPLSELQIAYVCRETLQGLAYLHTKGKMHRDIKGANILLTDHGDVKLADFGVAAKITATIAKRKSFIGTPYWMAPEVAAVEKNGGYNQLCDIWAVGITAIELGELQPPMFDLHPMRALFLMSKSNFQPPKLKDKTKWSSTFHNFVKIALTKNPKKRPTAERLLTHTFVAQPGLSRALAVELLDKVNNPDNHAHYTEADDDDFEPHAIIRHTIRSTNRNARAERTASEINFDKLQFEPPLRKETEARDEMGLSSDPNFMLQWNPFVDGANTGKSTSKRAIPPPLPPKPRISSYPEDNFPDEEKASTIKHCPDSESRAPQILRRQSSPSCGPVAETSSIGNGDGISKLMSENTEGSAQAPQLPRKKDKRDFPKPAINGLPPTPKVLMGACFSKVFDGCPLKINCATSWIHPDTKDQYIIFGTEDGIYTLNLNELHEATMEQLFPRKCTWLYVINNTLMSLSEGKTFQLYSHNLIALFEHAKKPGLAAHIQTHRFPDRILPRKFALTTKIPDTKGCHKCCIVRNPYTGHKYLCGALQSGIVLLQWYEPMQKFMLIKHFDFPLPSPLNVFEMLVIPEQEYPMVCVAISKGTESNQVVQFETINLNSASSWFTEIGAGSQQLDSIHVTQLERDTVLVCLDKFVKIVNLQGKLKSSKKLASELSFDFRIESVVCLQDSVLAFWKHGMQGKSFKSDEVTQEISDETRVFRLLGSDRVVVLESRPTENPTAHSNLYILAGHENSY

[4] = target: Dual specificity testis-specific protein kinase 1 (Homo sapiens) (UniProt Q15569); experiment: % Activity remaining of TESK1 in the Dundee kinase panel at 1.0 µM; conditions: Compound concentration 1.0 uM
[5] = target: Ribosomal protein S6 kinase alpha-3 (Homo sapiens) (UniProt P51812); experiment: % Activity remaining of RSK2 in the Dundee kinase panel at 1.0 µM; conditions: Compound concentration 1.0 uM
[6] = target: Serine/threonine-protein kinase 24 (Homo sapiens) (UniProt Q9Y6E0); experiment: % Activity remaining of MST3 in the Dundee kinase panel at 1.0 µM; conditions: Compound concentration 1.0 uM
Serine/threonine-protein kinase 24 (Homo sapiens), sequence (Q9Y6E0 whole entry, looked up): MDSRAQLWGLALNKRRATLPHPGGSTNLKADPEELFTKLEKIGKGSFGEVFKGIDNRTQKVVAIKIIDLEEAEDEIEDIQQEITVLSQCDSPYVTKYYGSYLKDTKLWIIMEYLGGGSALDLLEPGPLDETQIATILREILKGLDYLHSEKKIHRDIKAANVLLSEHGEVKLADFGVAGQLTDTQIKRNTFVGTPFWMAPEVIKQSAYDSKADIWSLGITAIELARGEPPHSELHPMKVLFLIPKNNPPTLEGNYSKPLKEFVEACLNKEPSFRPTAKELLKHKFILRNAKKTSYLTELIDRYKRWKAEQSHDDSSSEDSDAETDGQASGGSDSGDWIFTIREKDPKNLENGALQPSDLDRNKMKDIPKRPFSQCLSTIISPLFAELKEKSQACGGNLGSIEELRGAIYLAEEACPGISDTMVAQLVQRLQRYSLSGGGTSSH

[7] = target: Insulin receptor-related protein (Homo sapiens) (UniProt P14616); experiment: % Activity remaining of IRR in the Dundee kinase panel at 1.0 µM; conditions: Compound concentration 1.0 uM
[8] = target: Serine/threonine-protein kinase D1 (Homo sapiens) (UniProt Q15139); experiment: % Activity remaining of PKD1 in the Dundee kinase panel at 1.0 µM; conditions: Compound concentration 1.0 uM
[9] = target: Protein-tyrosine kinase 6 (Homo sapiens) (UniProt Q13882); experiment: % Activity remaining of BRK in the Dundee kinase panel at 1.0 µM; conditions: Compound concentration 1.0 uM
[10] = target: MAP/microtubule affinity-regulating kinase 3 (Homo sapiens) (UniProt P27448); experiment: % Activity remaining of MARK3 in the Dundee kinase panel at 1.0 µM; conditions: Compound concentration 1.0 uM
[11] = target: Death-associated protein kinase 1 (Homo sapiens) (UniProt P53355); experiment: % Activity remaining of DAPK1 in the Dundee kinase panel at 1.0 µM; conditions: Compound concentration 1.0 uM
[12] = target: Eukaryotic translation initiation factor 2-alpha kinase 3 (Homo sapiens) (UniProt Q9NZJ5); experiment: % Activity remaining of EIF2AK3 in the Dundee kinase panel at 1.0 µM; conditions: Compound concentration 1.0 uM
Eukaryotic translation initiation factor 2-alpha kinase 3 (Homo sapiens), sequence (Q9NZJ5 whole entry): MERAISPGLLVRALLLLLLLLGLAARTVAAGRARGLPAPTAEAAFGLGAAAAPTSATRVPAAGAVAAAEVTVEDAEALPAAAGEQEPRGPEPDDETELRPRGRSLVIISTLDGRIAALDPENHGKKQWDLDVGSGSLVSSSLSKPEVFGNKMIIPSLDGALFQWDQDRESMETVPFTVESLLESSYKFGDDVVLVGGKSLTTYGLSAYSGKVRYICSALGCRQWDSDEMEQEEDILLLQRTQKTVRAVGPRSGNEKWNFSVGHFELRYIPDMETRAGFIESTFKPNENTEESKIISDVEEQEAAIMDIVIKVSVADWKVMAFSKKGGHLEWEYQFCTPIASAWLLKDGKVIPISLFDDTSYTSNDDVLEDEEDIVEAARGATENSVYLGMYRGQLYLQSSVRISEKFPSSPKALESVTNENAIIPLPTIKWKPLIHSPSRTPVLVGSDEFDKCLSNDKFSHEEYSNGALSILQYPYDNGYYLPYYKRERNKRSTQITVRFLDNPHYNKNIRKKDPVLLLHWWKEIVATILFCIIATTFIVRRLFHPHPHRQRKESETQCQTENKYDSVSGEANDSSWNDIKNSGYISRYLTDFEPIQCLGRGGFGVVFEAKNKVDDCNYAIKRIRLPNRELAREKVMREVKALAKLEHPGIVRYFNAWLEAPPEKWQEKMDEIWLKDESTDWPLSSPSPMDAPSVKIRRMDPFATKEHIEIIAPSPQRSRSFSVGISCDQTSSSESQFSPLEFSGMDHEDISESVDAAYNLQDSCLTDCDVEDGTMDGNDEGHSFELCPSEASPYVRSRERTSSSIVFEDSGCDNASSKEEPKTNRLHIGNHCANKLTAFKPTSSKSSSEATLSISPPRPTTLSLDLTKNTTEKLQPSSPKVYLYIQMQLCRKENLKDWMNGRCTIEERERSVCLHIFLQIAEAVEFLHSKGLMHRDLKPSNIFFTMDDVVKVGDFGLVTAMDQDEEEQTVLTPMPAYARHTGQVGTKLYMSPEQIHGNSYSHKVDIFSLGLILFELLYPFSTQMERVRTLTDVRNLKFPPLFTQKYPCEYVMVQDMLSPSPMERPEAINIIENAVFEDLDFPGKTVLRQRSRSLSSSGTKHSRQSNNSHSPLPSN

[13] = target: Inhibitor of nuclear factor kappa-B kinase subunit beta (Homo sapiens) (UniProt O14920); experiment: % Activity remaining of IKK beta in the Dundee kinase panel at 1.0 µM; conditions: Compound concentration 1.0 uM
Inhibitor of nuclear factor kappa-B kinase subunit beta (Homo sapiens), sequence (O14920 whole entry): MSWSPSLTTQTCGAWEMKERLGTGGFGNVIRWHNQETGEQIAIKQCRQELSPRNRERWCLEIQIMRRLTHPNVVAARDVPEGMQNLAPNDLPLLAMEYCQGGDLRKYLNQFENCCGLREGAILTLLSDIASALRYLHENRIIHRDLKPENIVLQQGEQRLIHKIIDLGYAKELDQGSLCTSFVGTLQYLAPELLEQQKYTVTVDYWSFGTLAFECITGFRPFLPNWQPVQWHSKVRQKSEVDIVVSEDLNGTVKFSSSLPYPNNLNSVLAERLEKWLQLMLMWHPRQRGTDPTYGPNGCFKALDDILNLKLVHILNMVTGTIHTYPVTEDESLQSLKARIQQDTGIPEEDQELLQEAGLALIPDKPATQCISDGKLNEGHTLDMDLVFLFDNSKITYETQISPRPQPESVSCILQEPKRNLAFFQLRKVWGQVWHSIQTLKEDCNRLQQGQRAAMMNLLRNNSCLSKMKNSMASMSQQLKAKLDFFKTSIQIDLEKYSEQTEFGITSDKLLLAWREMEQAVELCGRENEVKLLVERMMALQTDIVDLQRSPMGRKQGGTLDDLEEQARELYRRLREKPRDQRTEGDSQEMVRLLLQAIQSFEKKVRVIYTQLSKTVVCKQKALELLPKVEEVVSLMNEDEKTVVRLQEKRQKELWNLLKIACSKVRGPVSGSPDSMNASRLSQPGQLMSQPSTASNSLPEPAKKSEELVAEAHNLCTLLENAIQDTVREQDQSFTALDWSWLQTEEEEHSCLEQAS

[14] = target: Homeodomain-interacting protein kinase 1 (Homo sapiens) (UniProt Q86Z02); experiment: % Activity remaining of HIPK1 in the Dundee kinase panel at 1.0 µM; conditions: Compound concentration 1.0 uM
[15] = target: Serine/threonine-protein kinase 33 (Homo sapiens) (UniProt Q9BYT3); experiment: % Activity remaining of STK33 in the Dundee kinase panel at 1.0 µM; conditions: Compound concentration 1.0 uM
[16] = target: Tyrosine-protein kinase ZAP-70 (Homo sapiens) (UniProt P43403); experiment: % Activity remaining of ZAP70 in the Dundee kinase panel at 1.0 µM; conditions: Compound concentration 1.0 uM
[17] = target: Dual specificity tyrosine-phosphorylation-regulated kinase 2 (Homo sapiens) (UniProt Q92630); experiment: % Activity remaining of DYRK2 in the Dundee kinase panel at 1.0 µM; conditions: Compound concentration 1.0 uM
[18] = target: Rho-associated protein kinase 2 (Homo sapiens) (UniProt O75116); experiment: % Activity remaining of ROCK 2 in the Dundee kinase panel at 1.0 µM; conditions: Compound concentration 1.0 uM
[19] = target: Tyrosine-protein kinase JAK2 (Homo sapiens) (UniProt O60674); experiment: % Activity remaining of JAK2 in the Dundee kinase panel at 1.0 µM; conditions: Compound concentration 1.0 uM
[20] = target: Casein kinase I isoform delta (Homo sapiens) (UniProt P48730); experiment: % Activity remaining of CK1 delta in the Dundee kinase panel at 1.0 µM; conditions: Compound concentration 1.0 uM
[21] = target: MAP kinase-activated protein kinase 2 (Homo sapiens) (UniProt P49137); experiment: % Activity remaining of MAPKAP-K2 in the Dundee kinase panel at 1.0 µM; conditions: Compound concentration 1.0 uM
MAP kinase-activated protein kinase 2 (Homo sapiens), sequence (P49137 whole entry, looked up): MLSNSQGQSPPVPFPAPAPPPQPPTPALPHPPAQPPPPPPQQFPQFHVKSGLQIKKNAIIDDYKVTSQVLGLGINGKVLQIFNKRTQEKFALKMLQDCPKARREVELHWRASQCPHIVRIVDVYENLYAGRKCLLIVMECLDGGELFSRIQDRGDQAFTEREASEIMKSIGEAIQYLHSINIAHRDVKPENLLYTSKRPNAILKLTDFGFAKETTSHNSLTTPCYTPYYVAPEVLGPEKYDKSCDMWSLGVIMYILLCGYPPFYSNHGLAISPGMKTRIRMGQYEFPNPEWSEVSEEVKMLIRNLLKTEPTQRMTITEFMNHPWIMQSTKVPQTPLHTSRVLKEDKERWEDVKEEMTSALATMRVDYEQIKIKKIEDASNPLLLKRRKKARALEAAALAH

[22] = target: Serine/threonine-protein kinase Nek2 (Homo sapiens) (UniProt P51955); experiment: % Activity remaining of NEK2a in the Dundee kinase panel at 1.0 µM; conditions: Compound concentration 1.0 uM
[23] = target: Mitogen-activated protein kinase 11 (Homo sapiens) (UniProt Q15759); experiment: % Activity remaining of p38 beta MAPK in the Dundee kinase panel at 1.0 µM; conditions: Compound concentration 1.0 uM
[24] = target: Serine/threonine-protein kinase PAK 6 (Homo sapiens) (UniProt Q9NQU5); experiment: % Activity remaining of PAK6 in the Dundee kinase panel at 1.0 µM; conditions: Compound concentration 1.0 uM
Serine/threonine-protein kinase PAK 6 (Homo sapiens), sequence (Q9NQU5 whole entry, looked up): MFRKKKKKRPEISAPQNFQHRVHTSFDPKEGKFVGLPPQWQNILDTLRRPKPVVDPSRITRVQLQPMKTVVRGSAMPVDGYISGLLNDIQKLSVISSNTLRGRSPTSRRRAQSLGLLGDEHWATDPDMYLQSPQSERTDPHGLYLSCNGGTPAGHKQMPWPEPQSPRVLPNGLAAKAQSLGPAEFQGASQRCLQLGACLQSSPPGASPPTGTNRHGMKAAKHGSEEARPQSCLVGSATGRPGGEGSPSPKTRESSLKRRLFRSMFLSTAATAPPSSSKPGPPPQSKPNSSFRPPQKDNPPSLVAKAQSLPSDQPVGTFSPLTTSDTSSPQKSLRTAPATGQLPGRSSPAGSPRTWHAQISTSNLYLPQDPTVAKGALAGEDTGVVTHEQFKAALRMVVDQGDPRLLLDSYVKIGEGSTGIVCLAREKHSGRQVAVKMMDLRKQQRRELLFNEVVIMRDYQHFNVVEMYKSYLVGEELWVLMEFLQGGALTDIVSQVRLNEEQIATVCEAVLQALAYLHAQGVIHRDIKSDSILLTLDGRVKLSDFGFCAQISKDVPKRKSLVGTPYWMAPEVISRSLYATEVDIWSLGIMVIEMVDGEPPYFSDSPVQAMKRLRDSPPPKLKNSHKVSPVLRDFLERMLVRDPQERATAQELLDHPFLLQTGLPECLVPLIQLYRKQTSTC

[25] = target: Proto-oncogene tyrosine-protein kinase Src (Homo sapiens) (UniProt P12931); experiment: % Activity remaining of Src in the Dundee kinase panel at 1.0 µM; conditions: Compound concentration 1.0 uM
[26] = target: Serine/threonine-protein kinase pim-2 (Homo sapiens) (UniProt Q9P1W9); experiment: % Activity remaining of PIM2 in the Dundee kinase panel at 1.0 µM; conditions: Compound concentration 1.0 uM
[27] = target: Aurora kinase B (Homo sapiens) (UniProt Q96GD4); experiment: % Activity remaining of Aurora B in the Dundee kinase panel at 1.0 µM; conditions: Compound concentration 1.0 uM
[28] = target: Mitogen-activated protein kinase 3 (Homo sapiens) (UniProt P27361); experiment: % Activity remaining of ERK1 in the Dundee kinase panel at 1.0 µM; conditions: Compound concentration 1.0 uM
[29] = target: Insulin receptor (Homo sapiens) (UniProt P06213); experiment: % Activity remaining of IR in the Dundee kinase panel at 1.0 µM; conditions: Compound concentration 1.0 uM
[30] = target: Serine/threonine-protein kinase 3 (Homo sapiens) (UniProt Q13188); experiment: % Activity remaining of MST2 in the Dundee kinase panel at 1.0 µM; conditions: Compound concentration 1.0 uM
[31] = target: Dual specificity tyrosine-phosphorylation-regulated kinase 1A (Homo sapiens) (UniProt Q13627); experiment: % Activity remaining of DYRK1A in the Dundee kinase panel at 1.0 µM; conditions: Compound concentration 1.0 uM
[32] = target: T1, Serine/threonine-protein kinase Sgk1 (Homo sapiens) (UniProt O00141); experiment: SGK1 degradation assay; format: functional
T1 sequence (whole entry): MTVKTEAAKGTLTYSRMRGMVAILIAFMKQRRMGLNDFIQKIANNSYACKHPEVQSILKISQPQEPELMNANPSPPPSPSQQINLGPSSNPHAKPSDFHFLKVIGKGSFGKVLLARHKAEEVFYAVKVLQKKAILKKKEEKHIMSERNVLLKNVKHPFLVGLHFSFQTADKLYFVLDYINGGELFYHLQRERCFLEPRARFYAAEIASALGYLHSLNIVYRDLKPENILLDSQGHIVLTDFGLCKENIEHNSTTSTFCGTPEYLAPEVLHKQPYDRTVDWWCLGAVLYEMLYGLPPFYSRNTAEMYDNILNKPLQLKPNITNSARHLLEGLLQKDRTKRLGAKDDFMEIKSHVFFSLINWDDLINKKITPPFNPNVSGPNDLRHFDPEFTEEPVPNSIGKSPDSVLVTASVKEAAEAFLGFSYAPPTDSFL

[33] = target: Ribosomal protein S6 kinase beta-1 (Homo sapiens, UniProt P23443); experiment: RPS6KB1 degradation assay; format: functional

Row | % Activity remaining [1] [%] | % Activity remaining [2] [%] | % Activity remaining [3] [%] | % Activity remaining [4] [%] | % Activity remaining [5] [%] | % Activity remaining [6] [%] | % Activity remaining [7] [%] | % Activity remaining [8] [%] | % Activity remaining [9] [%] | % Activity remaining [10] [%] | % Activity remaining [12] [%] | % Activity remaining [13] [%] | % Activity remaining [14] [%] | % Activity remaining [15] [%] | % Activity remaining [16] [%] | % Activity remaining [17] [%] | % Activity remaining [18] [%] | % Activity remaining [19] [%] | % Activity remaining [20] [%] | SMILES | % Activity remaining [11] [%] | other results
1 | 94.8 | 102 | 101 | 120 | 109 | 113 | 89.9 | 91.7 | 105 | 109 | 111 | 101 | 126 | 109 | 74.7 | 97.3 | 119 | 93.6 | 108 | Cc1ccc(F)c(S(=O)(=O)Nc2ccc(-c3nc(OC[C@H]4CN(CCCCCCOCCOCCOCC(=O)N[C@H](C(=O)N5C[C@@H](O)C[C@H]5C(=O)NCc5ccc(-c6scnc6C)cc5)C(C)(C)C)CCO4)c4cn[nH]c4n3)cc2)c1 | 108 | % Activity remaining [21]: 91.7%; % Activity remaining [22]: 139%; % Activity remaining [23]: 112%; % Activity remaining [24]: 99.5%; % Activity remaining [25]: 86.8%; % Activity remaining [26]: 105%; % Activity remaining [27]: 94.7%; % Activity remaining [28]: 101%; % Activity remaining [29]: 93.9%; % Activity remaining [30]: 100%; % Activity remaining [31]: 99%
2 | 101 | 112 | 98.6 | 122 | 120 | 102 | 103 | 94 | 86.8 | 98.4 | 106 | 99.9 | 135 | 110 | 75 | 102 | 113 | 95.4 | 95 | Cc1ccc(F)c(S(=O)(=O)Nc2ccc(-c3nc(OC[C@H]4CN(CCCCCCOCCOCCOCC(=O)N[C@H](C(=O)N5C[C@H](O)C[C@H]5C(=O)NCc5ccc(-c6scnc6C)cc5)C(C)(C)C)CCO4)c4cn[nH]c4n3)cc2)c1 | 100 | Degradation [32]: 0%; % Activity remaining [21]: 85.8%; Degradation [33]: 0%; % Activity remaining [22]: 162%; % Activity remaining [23]: 107%; % Activity remaining [24]: 97.9%; % Activity remaining [25]: 83.4%; % Activity remaining [26]: 98.2%; % Activity remaining [27]: 92.5%; % Activity remaining [28]: 103%; % Activity remaining [29]: 103%; % Activity remaining [30]: 112%; % Activity remaining [31]: 105%
